Our source for the IC50 values is patent US20240209053A1 (Protagonist Therapeutics, Inc., priority 2021, published 2024).

Broadly, the IC50 is the concentration at which inhibition is half-maximal. Read a high IC50 as lower potency.

The target of the assay is T1, human ferroportin (SLC40A1) (Homo sapiens, UniProt Q9NP59).
T1 sequence (Q9NP59 1-571): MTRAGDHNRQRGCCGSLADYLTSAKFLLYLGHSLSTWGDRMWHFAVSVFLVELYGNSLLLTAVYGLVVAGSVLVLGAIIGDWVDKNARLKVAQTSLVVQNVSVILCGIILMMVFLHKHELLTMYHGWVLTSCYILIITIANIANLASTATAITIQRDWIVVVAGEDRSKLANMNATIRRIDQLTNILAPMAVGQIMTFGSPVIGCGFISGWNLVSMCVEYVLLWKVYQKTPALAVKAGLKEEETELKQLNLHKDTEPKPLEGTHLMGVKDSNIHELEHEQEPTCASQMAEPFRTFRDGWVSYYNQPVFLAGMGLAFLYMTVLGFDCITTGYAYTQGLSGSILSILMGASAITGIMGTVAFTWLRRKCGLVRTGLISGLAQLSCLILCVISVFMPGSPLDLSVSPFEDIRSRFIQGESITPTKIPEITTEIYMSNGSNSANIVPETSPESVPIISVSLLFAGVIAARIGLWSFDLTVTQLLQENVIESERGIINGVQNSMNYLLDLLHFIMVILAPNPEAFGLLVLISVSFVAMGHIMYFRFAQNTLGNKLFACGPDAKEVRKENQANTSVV
Description: FPN activity assay: internalization/degradation of ferroportin-GFP in stably transfected HEK293 cells (decrease in GFP fluorescence). The settings on record: compound incubated at least 18 hours. It counts as cell-based. As to the method: Peptide analogues were tested in vitro for induction of internalization of the human ferroportin protein. Following internalization, the ferroporin protein is degraded. The assay used (FPN activity assay) measures a decrease in fluorescence of the receptor. The cDNA encoding the human ferroportin (SLC40A1) was cloned from a cDNA clone from Origene (NM_014585). The DNA encoding the ferroportin was amplified by PCR using primers also encoding terminal restriction sites for subcloning, but without the termination codon. The ferroportin receptor was subcloned into a mammalian GFP expression vector containing a neomycin (G418) resistance marker in such that the reading frame of the ferroportin was fused in frame with the GFP protein. The fidelity of the DNA encoding the protein was confirmed by DNA sequencing. HEK293 cells were used for transfection of the ferroportin-GFP receptor expression plasmid. The cells were grown according to standard protocol in growth medium and transfected with the plasmids using Lipofectamine (manufacturer's protocol, Invitrogen). The cells stably expressing ferroportin-GFP were selected using G418 in the growth medium (in that only cells that have taken up and incorporated the cDNA expression plasmid survive) and sorted several times on a Cytomation MoFloTM cell sorter to obtain the GFP-positive cells (488 nm/530 nm). The cells were propagated and frozen in aliquots. […] Compound was added to desired final concentration for at least 18 hours in the incubator. […] Compound was added to desired final concentration for at least 18 hours but no more than 24 hours in the incubator. […] The “RI” in RI-Mini-Hepcidin refers to Retro Inverse. A retro inverse peptide is a peptide with a reversed sequence in all D amino acids. An example is that […] becomes […]. The EC50 of these reference compounds for ferroportin internalization/degradation was determined according to the FPN activity assay described above. These peptides served as control standards.

Each structure is given as a SMILES string. Numbered stars: 1 amine (or outer) side, 2 acyl side, 3 side chain; on linkers, the order of the positions; unused ones are H or OH. Bridge positions count the residues as written; N and C are the ends. Square brackets hold non-standard residues; d marks the D form. Side chains are listed from the residue outwards. Peptide text beside a SMILES is read from it. * marks the point of attachment. Dip = N[C@H](C(=O)O)C(c1ccccc1)c1ccccc1; Hag = O=C([C@H](CCC=[*:3])N[*:1])[*:2]; Palmitoyl = CCCCCCCCCCCCCCCC(=O)*; tBuAla = CC(C)(C)C[C@H](N)C(=O)O; β3hF = N[C@H](CC(=O)O)Cc1ccccc1; Isovaleryl = CC(C)CC(=O)*; Ahx = NCCCCCC(=O)O

Consider `CCCCCCCCCCCCCCCC(=O)NCCCCCC(=O)NCCCC[C@H](NC(=O)[C@@H]1CCC=CCC[C@H](NC(=O)CC(C)C)C(=O)N[C@@H]([C@@H](C)O)C(=O)N[C@@H](Cc2c[nH]cn2)C(=O)N[C@@H](C(c2ccccc2)c2ccccc2)C(=O)N2CCC[C@H]2C(=O)N1)C(N)=O` [Compd 21] (Isovaleryl-[Hag]TH[Dip]P[Hag]K([Ahx-Palmitoyl])-NH2; staple 1-6), for which the IC50 was > 500 nM.
The same measure for `CCCCCCCCCCCCCCCC(=O)NCCCCCC(=O)NCCCC[C@H](NC(=O)C[C@H](Cc1ccccc1)NC(=O)[C@@H](CCCCN)NC(=O)[C@@H](NC(=O)[C@@H]1CCC=CCC[C@H](NC(=O)[C@H](Cc2c[nH]cn2)NC(=O)[C@@H](NC(=O)[C@H](CCC(=O)O)NC(=O)CC(C)C)[C@@H](C)O)C(=O)N2CCC[C@H]2C(=O)N1)[C@@H](C)CC)C(=O)N[C@H](CCCCN)C(N)=O` [Compd 5] (Isovaleryl-ETH[Hag]P[Hag]I[dK][β3hF]K([Ahx-Palmitoyl])[dK]-NH2; staple 4-6): > 500 nM.
As to `CCCCCCCCCCCCCCCC(=O)NCCCCCC(=O)NCCCC[C@H](NC(=O)C[C@H](Cc1ccccc1)NC(=O)[C@@H]1CCC=CCC[C@H](NC(=O)CC(C)C)C(=O)N[C@@H]([C@@H](C)O)C(=O)N[C@@H](CC(C)(C)C)C(=O)N[C@@H](C(c2ccccc2)c2ccccc2)C(=O)N2CCC[C@H]2C(=O)N[C@@H](C)C(=O)N[C@@H]([C@@H](C)CC)C(=O)N1)C(=O)N[C@H](CCCCN)C(N)=O` [Compd 59] (Isovaleryl-[Hag]T[tBuAla][Dip]PAI[Hag][β3hF]K([Ahx-Palmitoyl])[dK]-NH2; staple 1-8), the IC50 is > 500 nM.
Turning to `CCCCCCCCCCCCCCCC(=O)NCCCCCC(=O)NCCCC[C@H](NC(=O)C[C@H](Cc1ccccc1)NC(=O)[C@@H]1CCC=CCC[C@H](NC(=O)CC(C)C)C(=O)N[C@@H]([C@@H](C)O)C(=O)N[C@@H](Cc2c[nH]cn2)C(=O)N[C@@H](C)C(=O)N2CCC[C@H]2C(=O)N[C@@H](C)C(=O)N[C@@H]([C@@H](C)CC)C(=O)N1)C(=O)N[C@H](CCCCN)C(N)=O` [Compd 43] (Isovaleryl-[Hag]THAPAI[Hag][β3hF]K([Ahx-Palmitoyl])[dK]-NH2; staple 1-8), the concentration for half-maximal inhibition (IC50) is > 500 nM.
The same measure for `CCCCCCCCCCCCCCCC(=O)NCCCCCC(=O)NCCCC[C@@H]1NC(=O)C[C@H](Cc2ccccc2)NC(=O)[C@@H](CCCCN)NC(=O)[C@H]([C@@H](C)CC)NC(=O)[C@H](C)NC(=O)[C@@H]2CCCN2C(=O)[C@H](C(c2ccccc2)c2ccccc2)NC(=O)[C@H](Cc2c[nH]cn2)NC(=O)[C@H]([C@@H](C)O)NC(=O)[C@@H](NC(=O)CC(C)C)CCC=CCC[C@@H](C(N)=O)NC1=O` [Compd 84] (Isovaleryl-[Hag]TH[Dip]PAI[dK][β3hF]K([Ahx-Palmitoyl])[Hag]-NH2; staple 1-11): 100 to 500 nM.
The same measure for `CCCCCCCCCCCCCCCC(=O)NCCCCCC(=O)NCCCC[C@H](NC(=O)C[C@H](Cc1ccccc1)NC(=O)[C@@H]1CCC=CCC[C@H](NC(=O)CC(C)C)C(=O)N[C@@H](CC(C)(C)C)C(=O)N[C@@H](Cc2c[nH]cn2)C(=O)N[C@@H](C(c2ccccc2)c2ccccc2)C(=O)N2CCC[C@H]2C(=O)N[C@@H](C)C(=O)N[C@@H]([C@@H](C)CC)C(=O)N1)C(=O)N[C@H](CCCCN)C(N)=O` [Compd 58] (Isovaleryl-[Hag][tBuAla]H[Dip]PAI[Hag][β3hF]K([Ahx-Palmitoyl])[dK]-NH2; staple 1-8): > 500 nM; for `CCCCCCCCCCCCCCCC(=O)NCCCCCC(=O)NCCCC[C@H](NC(=O)C[C@H](Cc1ccccc1)NC(=O)[C@@H]1CCC=CCC[C@H](NC(=O)CC(C)C)C(=O)N[C@@H]([C@@H](C)O)C(=O)N[C@@H](Cc2c[nH]cn2)C(=O)N[C@@H](CC(C)(C)C)C(=O)N2CCC[C@H]2C(=O)N[C@@H](C)C(=O)N[C@@H]([C@@H](C)CC)C(=O)N1)C(=O)N[C@H](CCCCN)C(N)=O` [Compd 60]: 10 to 100 nM.
